Experimental data reported in ChEMBL document CHEMBL4507268 (2021).

Experiments:
Settings in all cases: Compound concentration 1.0 uM
[1] = molecular target: TGF-beta receptor type-2 (Homo sapiens) (UniProt P37173)
[2] = molecular target: Serine-protein kinase ATM (Homo sapiens) (UniProt Q13315)
[3] = molecular target: mTOR/FKBP12A/FKBP12B (Homo sapiens) (UniProt P62942+P68106+P42345)
[4] = molecular target: Proto-oncogene tyrosine-protein kinase ROS (Homo sapiens) (UniProt P08922)
[5] = molecular target: T1, Receptor-interacting serine/threonine-protein kinase 1 (Homo sapiens) (UniProt Q13546)
T1 sequence (whole entry): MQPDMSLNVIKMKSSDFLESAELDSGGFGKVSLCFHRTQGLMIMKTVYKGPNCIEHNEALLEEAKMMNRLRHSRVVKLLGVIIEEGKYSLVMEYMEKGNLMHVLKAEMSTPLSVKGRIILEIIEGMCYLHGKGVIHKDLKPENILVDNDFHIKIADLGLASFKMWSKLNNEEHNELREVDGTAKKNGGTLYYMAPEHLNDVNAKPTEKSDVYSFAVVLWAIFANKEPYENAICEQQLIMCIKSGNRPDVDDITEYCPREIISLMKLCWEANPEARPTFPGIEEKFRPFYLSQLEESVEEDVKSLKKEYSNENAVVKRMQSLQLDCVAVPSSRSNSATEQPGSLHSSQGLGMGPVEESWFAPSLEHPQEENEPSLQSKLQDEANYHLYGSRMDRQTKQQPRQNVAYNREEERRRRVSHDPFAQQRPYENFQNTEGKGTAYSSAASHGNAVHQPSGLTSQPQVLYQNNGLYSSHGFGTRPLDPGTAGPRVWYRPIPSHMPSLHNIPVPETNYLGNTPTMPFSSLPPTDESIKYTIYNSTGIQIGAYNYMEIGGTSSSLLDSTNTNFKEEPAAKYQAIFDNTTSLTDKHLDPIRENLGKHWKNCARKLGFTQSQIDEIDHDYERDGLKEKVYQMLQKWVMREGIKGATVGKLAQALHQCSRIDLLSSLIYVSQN

[6] = molecular target: STE20-like serine/threonine-protein kinase (Homo sapiens) (UniProt Q9H2G2)
[7] = molecular target: Fibroblast growth factor receptor 1 (Homo sapiens) (UniProt P11362)
Chain of Fibroblast growth factor receptor 1 (Homo sapiens) (P11362 22-822 limits assumed): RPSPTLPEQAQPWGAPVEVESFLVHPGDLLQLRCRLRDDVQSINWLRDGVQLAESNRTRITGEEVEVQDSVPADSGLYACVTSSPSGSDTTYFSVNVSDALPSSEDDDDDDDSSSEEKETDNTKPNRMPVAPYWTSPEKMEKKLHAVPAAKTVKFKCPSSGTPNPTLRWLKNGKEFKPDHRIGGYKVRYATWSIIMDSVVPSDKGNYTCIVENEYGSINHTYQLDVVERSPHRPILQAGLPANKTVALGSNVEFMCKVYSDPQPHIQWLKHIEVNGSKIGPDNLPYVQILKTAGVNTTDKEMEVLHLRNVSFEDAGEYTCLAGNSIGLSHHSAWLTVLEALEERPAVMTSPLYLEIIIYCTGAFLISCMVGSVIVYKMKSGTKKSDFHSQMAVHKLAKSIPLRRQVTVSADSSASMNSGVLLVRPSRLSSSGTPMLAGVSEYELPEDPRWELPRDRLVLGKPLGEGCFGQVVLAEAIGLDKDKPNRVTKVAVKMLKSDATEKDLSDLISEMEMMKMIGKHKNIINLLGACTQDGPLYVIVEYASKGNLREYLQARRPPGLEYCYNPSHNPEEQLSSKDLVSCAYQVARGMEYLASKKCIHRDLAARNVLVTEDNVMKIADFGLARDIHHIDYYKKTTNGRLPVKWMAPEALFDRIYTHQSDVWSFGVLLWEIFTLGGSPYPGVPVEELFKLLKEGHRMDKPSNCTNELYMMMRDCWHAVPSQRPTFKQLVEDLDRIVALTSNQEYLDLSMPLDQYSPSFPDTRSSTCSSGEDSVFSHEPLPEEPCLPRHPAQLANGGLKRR

[8] = molecular target: T2, Serine/threonine-protein kinase DCLK3 (Homo sapiens) (UniProt Q9C098)
T2 sequence (whole entry): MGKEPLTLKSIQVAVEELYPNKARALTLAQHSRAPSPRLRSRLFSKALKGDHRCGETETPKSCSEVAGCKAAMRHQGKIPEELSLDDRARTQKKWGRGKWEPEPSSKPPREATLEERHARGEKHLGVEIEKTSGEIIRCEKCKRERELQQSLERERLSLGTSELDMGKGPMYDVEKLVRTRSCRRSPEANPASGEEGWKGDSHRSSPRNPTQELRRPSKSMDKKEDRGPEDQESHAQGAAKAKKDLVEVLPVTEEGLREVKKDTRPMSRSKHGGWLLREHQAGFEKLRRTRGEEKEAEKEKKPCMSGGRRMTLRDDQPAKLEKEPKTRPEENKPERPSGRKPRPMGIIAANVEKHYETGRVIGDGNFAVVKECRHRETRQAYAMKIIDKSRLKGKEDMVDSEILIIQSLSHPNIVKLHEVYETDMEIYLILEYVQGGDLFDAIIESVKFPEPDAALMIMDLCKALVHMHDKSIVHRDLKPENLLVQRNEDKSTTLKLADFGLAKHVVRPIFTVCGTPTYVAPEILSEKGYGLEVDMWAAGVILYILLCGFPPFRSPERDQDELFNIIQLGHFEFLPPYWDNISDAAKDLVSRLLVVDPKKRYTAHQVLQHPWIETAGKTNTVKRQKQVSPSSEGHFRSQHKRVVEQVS

[9] = molecular target: Leukocyte tyrosine kinase receptor (Homo sapiens) (UniProt P29376)
Chain of Leukocyte tyrosine kinase receptor (Homo sapiens) (P29376 whole entry): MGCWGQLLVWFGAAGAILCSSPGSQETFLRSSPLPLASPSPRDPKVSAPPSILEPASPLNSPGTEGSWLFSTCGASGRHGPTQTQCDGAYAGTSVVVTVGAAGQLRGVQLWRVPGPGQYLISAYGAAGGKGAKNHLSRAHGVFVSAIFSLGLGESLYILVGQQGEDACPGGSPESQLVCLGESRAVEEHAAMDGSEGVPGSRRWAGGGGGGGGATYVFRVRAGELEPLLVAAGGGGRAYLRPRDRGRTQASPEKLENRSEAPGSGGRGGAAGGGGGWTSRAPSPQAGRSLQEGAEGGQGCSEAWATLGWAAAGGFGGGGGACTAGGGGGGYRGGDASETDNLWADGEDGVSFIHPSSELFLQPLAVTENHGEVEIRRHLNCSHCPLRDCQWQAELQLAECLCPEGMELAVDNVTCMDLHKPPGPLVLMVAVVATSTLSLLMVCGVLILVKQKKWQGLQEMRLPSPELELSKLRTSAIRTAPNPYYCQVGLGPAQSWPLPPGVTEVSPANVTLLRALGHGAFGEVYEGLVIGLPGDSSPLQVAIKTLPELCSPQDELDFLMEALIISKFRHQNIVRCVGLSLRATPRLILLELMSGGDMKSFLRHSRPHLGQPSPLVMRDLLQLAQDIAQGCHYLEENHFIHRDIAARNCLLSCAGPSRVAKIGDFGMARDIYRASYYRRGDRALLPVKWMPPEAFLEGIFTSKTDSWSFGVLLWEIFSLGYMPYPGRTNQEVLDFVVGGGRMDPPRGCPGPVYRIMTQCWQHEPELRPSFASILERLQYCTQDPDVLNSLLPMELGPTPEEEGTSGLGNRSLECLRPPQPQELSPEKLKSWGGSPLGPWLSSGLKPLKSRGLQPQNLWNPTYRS

Measured: % residual kinase activity

Chain of Proto-oncogene tyrosine-protein kinase ROS (Homo sapiens) (P08922 whole entry): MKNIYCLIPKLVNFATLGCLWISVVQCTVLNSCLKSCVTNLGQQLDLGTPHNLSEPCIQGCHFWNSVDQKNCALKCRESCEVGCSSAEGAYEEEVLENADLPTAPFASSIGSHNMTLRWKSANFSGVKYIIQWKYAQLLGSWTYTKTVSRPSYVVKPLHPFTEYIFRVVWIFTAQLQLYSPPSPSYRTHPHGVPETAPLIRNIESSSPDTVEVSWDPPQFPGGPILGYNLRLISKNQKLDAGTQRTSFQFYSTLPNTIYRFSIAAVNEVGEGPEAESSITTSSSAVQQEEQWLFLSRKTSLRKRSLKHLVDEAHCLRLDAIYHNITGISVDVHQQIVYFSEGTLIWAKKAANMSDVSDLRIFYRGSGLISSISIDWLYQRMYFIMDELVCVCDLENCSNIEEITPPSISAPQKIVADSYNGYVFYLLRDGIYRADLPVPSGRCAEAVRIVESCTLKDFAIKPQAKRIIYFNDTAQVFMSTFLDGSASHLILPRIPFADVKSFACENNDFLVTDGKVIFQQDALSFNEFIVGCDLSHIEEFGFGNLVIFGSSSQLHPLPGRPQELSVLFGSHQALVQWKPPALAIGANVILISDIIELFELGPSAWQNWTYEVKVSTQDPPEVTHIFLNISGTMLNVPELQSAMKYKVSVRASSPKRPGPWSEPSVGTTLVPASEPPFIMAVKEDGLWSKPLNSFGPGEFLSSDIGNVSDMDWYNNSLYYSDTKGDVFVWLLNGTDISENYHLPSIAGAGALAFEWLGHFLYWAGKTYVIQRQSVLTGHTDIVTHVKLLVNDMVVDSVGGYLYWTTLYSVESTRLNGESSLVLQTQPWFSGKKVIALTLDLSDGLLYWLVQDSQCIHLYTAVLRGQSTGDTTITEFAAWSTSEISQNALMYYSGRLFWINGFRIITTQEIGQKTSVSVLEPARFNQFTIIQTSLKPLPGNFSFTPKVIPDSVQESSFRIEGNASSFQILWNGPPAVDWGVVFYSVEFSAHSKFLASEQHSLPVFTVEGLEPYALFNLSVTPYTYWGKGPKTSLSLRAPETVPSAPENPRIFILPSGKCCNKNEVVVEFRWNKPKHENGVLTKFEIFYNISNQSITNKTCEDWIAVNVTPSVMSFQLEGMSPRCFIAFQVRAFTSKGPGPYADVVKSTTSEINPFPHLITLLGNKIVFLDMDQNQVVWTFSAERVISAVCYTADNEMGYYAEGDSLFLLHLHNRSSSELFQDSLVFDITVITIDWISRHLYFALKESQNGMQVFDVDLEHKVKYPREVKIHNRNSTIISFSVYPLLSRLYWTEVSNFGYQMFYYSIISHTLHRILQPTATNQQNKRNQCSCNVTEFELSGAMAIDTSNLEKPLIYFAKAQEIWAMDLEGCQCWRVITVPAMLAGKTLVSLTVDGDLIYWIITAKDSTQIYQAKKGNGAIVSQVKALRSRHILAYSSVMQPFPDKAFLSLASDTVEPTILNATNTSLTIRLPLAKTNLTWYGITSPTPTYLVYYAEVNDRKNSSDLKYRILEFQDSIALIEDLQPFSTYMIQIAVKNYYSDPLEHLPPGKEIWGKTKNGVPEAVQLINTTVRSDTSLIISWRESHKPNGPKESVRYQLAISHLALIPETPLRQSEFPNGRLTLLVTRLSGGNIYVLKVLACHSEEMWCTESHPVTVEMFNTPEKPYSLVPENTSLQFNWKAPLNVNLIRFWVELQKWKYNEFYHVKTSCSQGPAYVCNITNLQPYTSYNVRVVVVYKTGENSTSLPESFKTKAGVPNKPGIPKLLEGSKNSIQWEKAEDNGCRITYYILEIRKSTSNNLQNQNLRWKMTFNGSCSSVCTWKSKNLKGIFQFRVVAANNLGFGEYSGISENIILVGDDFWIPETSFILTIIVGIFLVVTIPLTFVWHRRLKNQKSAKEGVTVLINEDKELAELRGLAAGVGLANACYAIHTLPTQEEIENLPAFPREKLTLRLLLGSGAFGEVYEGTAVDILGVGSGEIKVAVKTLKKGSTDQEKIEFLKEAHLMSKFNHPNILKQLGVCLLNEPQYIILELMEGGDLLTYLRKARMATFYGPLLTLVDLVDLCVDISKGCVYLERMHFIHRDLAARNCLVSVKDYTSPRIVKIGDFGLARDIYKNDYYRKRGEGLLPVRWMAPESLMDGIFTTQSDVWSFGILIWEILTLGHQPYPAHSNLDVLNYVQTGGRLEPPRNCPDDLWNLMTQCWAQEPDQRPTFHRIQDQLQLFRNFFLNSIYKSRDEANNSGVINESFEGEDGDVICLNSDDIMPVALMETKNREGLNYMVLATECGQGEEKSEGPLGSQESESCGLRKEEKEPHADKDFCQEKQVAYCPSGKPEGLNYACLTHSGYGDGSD
Chain of mTOR/FKBP12A/FKBP12B (Homo sapiens) (P62942 2-108 limits assumed, other chains not shown): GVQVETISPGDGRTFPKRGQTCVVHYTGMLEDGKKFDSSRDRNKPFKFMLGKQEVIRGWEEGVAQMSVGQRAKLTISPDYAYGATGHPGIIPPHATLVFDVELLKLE
Chain of mTOR/FKBP12A/FKBP12B (Homo sapiens) (P68106 whole entry partner, other chains not shown): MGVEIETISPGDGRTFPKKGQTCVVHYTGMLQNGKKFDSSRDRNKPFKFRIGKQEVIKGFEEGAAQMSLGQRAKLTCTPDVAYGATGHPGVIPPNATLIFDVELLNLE
Chain of TGF-beta receptor type-2 (Homo sapiens) (P37173 whole entry): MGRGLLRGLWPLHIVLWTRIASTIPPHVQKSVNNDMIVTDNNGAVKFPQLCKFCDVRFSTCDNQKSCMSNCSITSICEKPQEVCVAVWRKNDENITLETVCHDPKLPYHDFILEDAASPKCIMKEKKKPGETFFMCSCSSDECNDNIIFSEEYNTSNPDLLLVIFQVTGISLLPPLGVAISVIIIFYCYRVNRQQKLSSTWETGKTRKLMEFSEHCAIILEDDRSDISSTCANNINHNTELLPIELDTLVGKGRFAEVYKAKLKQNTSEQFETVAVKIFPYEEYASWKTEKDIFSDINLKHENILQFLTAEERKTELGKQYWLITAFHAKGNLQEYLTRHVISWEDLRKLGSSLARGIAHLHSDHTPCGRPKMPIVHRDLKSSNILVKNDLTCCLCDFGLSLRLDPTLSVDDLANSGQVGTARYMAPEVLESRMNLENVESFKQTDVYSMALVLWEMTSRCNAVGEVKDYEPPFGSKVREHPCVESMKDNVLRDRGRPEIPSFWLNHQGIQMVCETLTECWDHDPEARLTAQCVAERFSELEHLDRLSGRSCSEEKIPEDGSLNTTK

CN1CCN(c2cnc3c(C4CCN(C(=O)c5ccc(OC(F)(F)F)cc5N)CC4)ncnc3c2)CC1 [BAY-885]
inactive: [1] 108% | [2] 107% | [3] 101% | [4] 111% | [5] 100% | [6] 87% | [7] 101% | [8] 92% | [9] 103%
